Assay results as given in patent US20220226480A1, “LIPID CONJUGATE PREPARED FROM SCAFFOLD MOIETY” (Integrated Nanotherapeutics Inc., priority 2019, published 2022).

Legend:
[1] = Particle size and polydispersity of LNP containing pro-drug (dynamic light scattering); type: physicochemical; design: Size of LNP: unit not given here
Experimental: (§1) LNPs were prepared by dissolving 1,2-Distearoyl-sn-glycero-3-phosphocholine (DSPC) or 1,2-dimyristoyl-sn-glycero-3-phosphocholine (DMPC), cholesterol and 1,2-Distearoyl-sn-glycero-3-phosphoethanolamine-Poly(ethylene glycol) (PEG-DSPE) in ethanol. DSPC, DMPC and PEG-DSPE were purchased from Avanti Polar Lipids (Alabaster, Ala.), and cholesterol was obtained from Sigma (St Louis, Mo.).
(§2) Drug-lipid-conjugates INT-D034, INT-D035, INT-D045, INT-D046, INT-D047, INT-D048, INT-D049, INT-D050, INT-D051, INT-D053, INT-D060, INT-D061, INT-D062, INT-D063, INT-D083, INT-D085, INT-D086, INT-D088 and INT-D089 (see FIG. 3 and Example 7 for structures) were dissolved in isopropanol or THF. LNP were prepared by rapidly mixing DSPC or DMPC, cholesterol, drug-lipid conjugate, and PEG-DSPE (in molar ratio of 49/40/10/1) with phosphate-buffered saline (PBS) using a cross-junction mixer. Formulations were dialyzed against PBS to remove residual ethanol. In formulation$ with more than 10 mol % drug-lipid conjugates, the amount of phospholipid or cholesterol was reduced accordingly.
(§3) The physiochemical properties of the LNPs prepared as described above were subsequently characterized. Particle size was determined by dynamic light scattering using a Malvern Zetasizer Nano ZS (Malvern, UK) following buffer exchange into phosphate-buffered saline. Number-weighted size and distribution date was used. Lipid concentrations were determined by measuring total cholesterol using the Cholesterol E enzymatic assay kit from Wako Chemicals USA (Richmond, Va.). The morphology of LNP formulations containing LD-DEX was analyzed by cryogenic-transmission electron microscopy (cryoTEM).

Raw264.7 = assay: Pro-inflammatory cytokine expression in LPS-stimulated Raw264.7 cells (qRT-PCR); type: cell-based; details: LNP formulation at doses equivalent to 1, 3 or 10 μM dexamethasone, 24 hours, 10 ng/mL LPS, versus control LNP
Experimental: (§4) The graph depicts the expression of the cytokines IL-10 (top), TNFα (middle) and IL-6 (bottom) after 24 hours of incubation of the cells with the above components at doses equivalent to 1, 3 or 10 μM of dexamethasone, followed by stimulation by 10 ng/mL LPS overnight. Cytokine levels were measured by qRT-PCR and data was normalized to cells treated with control LNP without drug-lipid conjugates.
as §4, with “IL-10” for “IL-10 (top), TNFα (middle) and IL-6 (bottom)”, “1” for “1, 3”
(§5) Cultured macrophage cell lines J774.2 (FIG. 8) and Raw264.7 (FIG. 9A) were incubated with immunostimulant LPS and LNP with or without ricinoleyl-dexamethasone conjugate INT-D034/INT-D035. After 24 hours, cells were harvested and were analyzed for expression of pro-Inflammatory cytokines IL1β, TNFα and IL-6. RNA was isolated from the cells and levels of pro-inflammatory cytokines ILIβ, TNFα and IL6 were determined by qRT-PCR.

[2] = Encapsulation efficiency / incorporation of pro-drug in LNP; type: physicochemical; details: for Encapsulation Efficiency (%): LNP containing 10 mol % conjugate, primary PC-lipid DMPC; for % Entrapment: LNP formulations containing pro-drugs (10 mol %, FIG. 6A)
Experimental: as §1, §2, §3

J774.2 = assay: Pro-inflammatory cytokine expression in LPS-stimulated macrophage cell line J774.2 (qRT-PCR); type: cell-based; details: LNP formulation at doses equivalent to 1, 3 or 10 μM dexamethasone, 24 hours, 10 ng/mL LPS, versus control LNP
Experimental: as §4, with “IL-1β” for “IL-10”, “lipopolysaccharide (LPS)” for “LPS”
as §5

CD4+ T cells = assay: Mixed lymphocyte reaction (MLR) assay, BMDCs with allogeneic CD4+ T cells; type: cell-based, mice; details: LNP containing 10-99 mol % conjugate; BMDCs treated 48 hours, LPS 24 hours; 5:1 or 10:1 T-to-BMDC ratio; 3 days; flow cytometry
Experimental: Bone marrow derived dendritic cells (BMDCs) from C57Bl/6 male mice were first treated with LNP containing various mol % of the dexamethasone or calcitriol conjugates for 48 hours and then activated by incubation with LIPS for 24 hours. They were then harvested and mixed with CD4+ T cells isolated from Balb/cJ male mice (Jackson Laboratories) at 5:1 or 10:1 T-to-BMDC ratio.
Dexamethasone and calcitriol can tolerize antigen presenting cells (APCs). […] Bone marrow derived dendritic cells (BMDCs) from C57BI/6 male mice (Charles River) were first treated with LNP containing various mol % of dexamethasone or calcitriol conjugates for 48 hours and then activated by incubation with LPS for 24 hours. They were then harvested and mixed with CD4+ T cells isolated from Balb/cl male mice (Jackson Laboratories) at 5:1 or 10:1 T-to-BMDC ratio. The levels of T cells proliferation after 3 days were quantified using flow cytometry.

[3] = LNP containing 10 mol % conjugate, primary PC-lipid DMPC
[4] = LNP formulations containing pro-drugs (10 mol %, FIG. 6A)
[5] = LNP, pro-drug concentration 10 %
[6] = LNP, pro-drug concentration 20 %
[7] = LNP, pro-drug concentration 30 %
[8] = LNP, pro-drug concentration 40 %
[9] = LNP, pro-drug concentration 50 %
[10] = LNP, pro-drug concentration 60 %
[11] = LNP, pro-drug concentration 80 %
[12] = LNP, pro-drug concentration 95 %
[13] = LNP, pro-drug concentration 98 %
[14] = LNP, pro-drug concentration 99 %
[15] = all LNP formulations at 0 to 99 mol % pro-drug concentration

CCCCCCCC/C=C\CCCCCCCC(=O)O[C@@H](C/C=C\CCCCCCCCOC(=O)CCC(=O)OCC(=O)[C@@]1(O)[C@H](C)C[C@H]2[C@@H]3CCC4=CC(=O)C=C[C@]4(C)[C@@]3(F)[C@@H](O)C[C@@]21C)CCCCCC [INT-D035, 2-((8S,9R,10S,11S,13S,14S,16R,17R)-9-fluoro-11,17-dihydroxy-10,13,16-trimethyl-3-oxo-6,7,8,9,10,11,12,13,14,15,16,17-dodecahydro-3H-cyclopenta[a]phenanthren-17-yl)-2-oxoethyl ((R,Z)-12-(oleoyloxy)octadec-9-en-1-yl) succinate]
Particle Diameter (nm) [1, 3]: 67 nm | Polydispersity index (PDI) [1, 3]: 0.03 | PdI [1, 4]: 0.11 | Size of LNP [1, 4]: 64 | levels of pro-inflammatory cytokines (IL1β, TNFα, IL-6) (Raw264.7): reduced levels of pro-inflammatory cytokines in a dose-dependent manner | Encapsulation Efficiency (%) [2]: 100% | % Entrapment [2]: 99% | levels of pro-inflammatory cytokines (IL1β, TNFα, IL-6) (J774.2): reduced levels of pro-inflammatory cytokines in a dose-dependent manner

CCCCCC[C@H](C/C=C\CCCCCCCCOC(=O)CCC(=O)OCC(=O)[C@@]1(O)[C@H](C)C[C@H]2[C@@H]3CCC4=CC(=O)C=C[C@]4(C)[C@@]3(F)[C@@H](O)C[C@@]21C)OC(=O)CCCCC [INT-D034, 2-((8S,9R,10S,11S,13S,14S,16R,17R)-9-Fluoro-11,17-dihydroxy-10,13,16-trimethyl-3-oxo-6,7,8,9,10,11,12,13,14,15,16,17-dodecahydro-3H-cyclopenta[a]57ctadic57rene-17-yl)-2-oxoethyl ((R,Z)-12-(hexanoyloxy)57ctadic-9-en-1-yl) succinate]
Particle Diameter (nm) [1, 3]: 72 nm | Polydispersity index (PDI) [1, 3]: 0.02 | PdI [1, 4]: 0.08 | Size of LNP [1, 4]: 70 | PdI [1, 5]: 0.064 | Size (nm) [1, 5]: 48 nm | PdI [1, 6]: 0.068 | Size (nm) [1, 6]: 45 nm | PdI [1, 7]: 0.082 | Size (nm) [1, 7]: 43 nm | PdI [1, 8]: 0.100 | Size (nm) [1, 8]: 41 nm | PdI [1, 9]: 0.085 | Size (nm) [1, 9]: 32 nm | PdI [1, 10]: 0.022 | Size (nm) [1, 10]: 48 nm | PdI [1, 11]: 0.025 | Size (nm) [1, 11]: 87 nm | PdI [1, 12]: 0.082 | Size (nm) [1, 12]: 29 nm | PdI [1, 13]: 0.014 | Size (nm) [1, 13]: 52 nm | PdI [1, 14]: 0.011 | Size (nm) [1, 14]: 86 nm | Polydispersity index (PDI) [1, 15]: ≤ 0.1 | particle diameter [1, 15]: 29-87 nm | levels of pro-inflammatory cytokines (IL1β, TNFα, IL-6) (Raw264.7): reduced levels of pro-inflammatory cytokines in a dose-dependent manner | Encapsulation Efficiency (%) [2]: 100% | % Entrapment [2]: 99% | encapsulation efficiencies [2, 15]: high | allogeneic T-cell proliferation (CD4+ T cells): able to suppress allogeneic T-cell proliferation | levels of pro-inflammatory cytokines (IL1β, TNFα, IL-6) (J774.2): reduced levels of pro-inflammatory cytokines in a dose-dependent manner
